{
  "source": "patent US8568994B2",
  "about": "“Method for prenatal diagnosis” (DKFZ Deutsches Krebsforschungszentrum, Stiftung des …, priority 2007, dated 2013)",
  "tested_on": "Differentiated HPC cells",
  "test": "Regulated exosomal secretion in human podocytes (Western blot of secreted vesicles for CD24, HSP70, Annexin-1)",
  "assay_type": "cell-based",
  "conditions": "MCD 10 μg/ml or 10 mM for 2 hr",
  "method": "Cultured HPC (differentiated) were treated with ionomycin (1 μM), MCD (10 mM) or cis-platin (15 μM) for 2 hr. Secreted membrane vesicles were harvested and cells were lysed in lysis buffer. Lysates and isolated vesicles were analyzed by SDS-PAGE followed by Western blot analysis with the indicated antibodies to CD24 and the exosomal marker proteins HSP70 and Annexin-1. Note the low level of constitutive vesicle secretion that is augmented by MCD.\nDifferentiated HPC cells were treated with ionomycin ([…]), MCD (10 μg/ml) or cisplatin (1 μg/ml) and analyzed the amount of exosomes released.\nHuman conditionally immortalized podocytes (HPC) were isolated and cultivated as previously described (31). Cells were grown in flasks either at the permissive temperature of 32° C. (in 5% CO2) to promote cell propagation as a cobblestone phenotype (undifferentiated) or at the nonpermissive temperature of 37° C. (in 5% CO2) to inactivate the SV40 T antigen and to allow the cells to differentiate. Prior to stimulation, cells were incubated for 16 h in RPMI 1640 medium, supplemented with 0.1 mg/ml of fatty acid-free bovine serum albumin. HK-2 human proximal tubular epithelial cells were obtained from American Type Culture Collection (ATCC, USA). Human mesangial cells (HMC) were kindly provided by Prof. Dr. Radeke (Depart. of Pharmacology, University of Frankfurt). […]",
  "data": [
    {"substance": "methyl-beta-cyclodextrin [MCD]", "values": [
      {"measurement": "release of CD24 containing exosomes", "result": "significantly augmented the release of CD24 containing exosomes"}
    ]}
  ]
}
